We go through 15 compounds from patent publication US20240262801A1, “COMPOUNDS HAVING 5-(2-FLUORO-6-HYDROXYPHENYL)-1,2,5-THIADIAZOLIDIN-3-ONE 1,1-DIOXIDE AS INHIBITORS OF PROTEIN KINASE PHOSPHATASE ENZYMES” (Ness Therapeutics, Inc., priority 2021, published 2024).

As usually defined, the IC50 is the concentration at which inhibition is half-maximal. For orientation: inhibition means the percentage by which the read-out fell short of the control.

Read-outs that look alike come from different tables or passages of the source. Some results are limits rather than exact numbers.

Experiment [1] relates to B16F10 mouse melanoma cells. As to the kind of experiment: Tumor cells B16F10 cellular growth IFNγ-induced inhibition assay (CellTiter-Glo). The following applies: for IC50: B16-F10, 72 h, 3 days incubation; for inhibition at 100 µM: B16-F10, B16F10, 100 μM compound; for inhibition at 40 µM: B16-F10, B16F10, 40 μM compound. The format is cell-based. As to the method: B16F10 mouse melanoma cells (ATCC Cat #CRL-6475) were seeded at a density of 500 cells per well in a 384-well clear bottom plate (Corning Cat #3712, Corning, N.Y.) in 40 μL total volume of DMEM+10% FBS (PanEco Cat #C420, Russia and Sigma Cat #F4135, St. Louis, Mo.). Cells were allowed to adhere overnight at 37° C., 5% CO2. On the following day, 250× solutions of compounds in DMSO (Sigma Cat #D2650) were prepared into […] plate (Diamond Well Plate, Axigen, Cat #P-384-120SQ-C-S) (final concentration of 1×) and DMSO only controls were included. Dilution Plate (Diamond Well Plate (Axigen, Cat #P-384-120SQ-C-S) was prepared by adding 49 μL of culture medium per well: half of the plate with culture medium only, half with culture medium+IFNγ (5 ng/ml). A 1 μL aliquot of 250× compounds ([…] plate) was added to 49 μL of culture medium (Dilution plate), then a 10 μL aliqut of the mixture was transferred to Reaction plate with 40 μL of cells followed by centrifugation at 240 g for 1 min. After 3 days of incubation, 10 μL of CellTiter-Glo (Promega) was added to the cells, plates were centrifuged at 240 g for 1 min, and luminescence signal was measured. For each compound, the percent growth inhibition at every compound dose level was calculated relative to the “DMSO/with IFNγ” control and used to determine the IC50.
In general terms: In ATP-based viability assays light output follows the ATP content of the culture.

Experiment [2] deals with T1, GST-tagged PTPN2 protein (Homo sapiens, UniProt P17706).
T1 construct: purchased ActiveMotif 31592
T1 sequence (P17706 with tags, fused parts or gaps): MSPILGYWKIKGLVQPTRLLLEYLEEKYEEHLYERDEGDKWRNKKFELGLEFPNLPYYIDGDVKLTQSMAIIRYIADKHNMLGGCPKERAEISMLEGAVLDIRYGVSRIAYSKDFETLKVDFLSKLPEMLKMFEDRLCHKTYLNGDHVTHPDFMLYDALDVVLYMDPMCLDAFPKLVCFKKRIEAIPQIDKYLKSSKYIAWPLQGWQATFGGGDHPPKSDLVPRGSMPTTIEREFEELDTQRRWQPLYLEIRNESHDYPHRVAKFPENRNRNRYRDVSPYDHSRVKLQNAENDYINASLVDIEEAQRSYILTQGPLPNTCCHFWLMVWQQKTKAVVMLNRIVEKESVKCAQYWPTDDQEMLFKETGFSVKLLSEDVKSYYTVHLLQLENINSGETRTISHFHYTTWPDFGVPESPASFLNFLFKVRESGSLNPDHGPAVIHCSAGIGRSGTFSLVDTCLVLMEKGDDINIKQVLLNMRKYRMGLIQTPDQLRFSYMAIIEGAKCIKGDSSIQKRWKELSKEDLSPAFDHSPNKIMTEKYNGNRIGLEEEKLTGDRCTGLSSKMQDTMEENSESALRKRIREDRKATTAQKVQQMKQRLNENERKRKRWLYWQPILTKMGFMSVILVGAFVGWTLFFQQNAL
As to the kind of experiment: Primary assay of PTPN2 enzymatic activity inhibition (DiFMUP fluorescence). The format is biochemical. To be noted: DiFMUP substrate 2 μM, 60 min at RT. As to the method:
Compound activity was determined using GST-tagged PTPN2 protein (Cat #31592, ActiveMotif) (SEQ ID NO: 1) in an in vitro enzymatic reaction. The enzymatic reaction was carried out in assay buffer (50 mM HEPES Na salt pH 7.2-7.4, 2 mM EDTA, 100 mM NaCl, 52 ng/μL BSA, and 6 mM DTT). The compounds were dispensed on a 384 well Diamond Well Plate (Axigen, Cat #P-384-120SQ-C-S) using the Biomek FX liquid handling system at 100× solutions of compounds in DMSO. 2× PTPN2 (final concentration 0.004 ng/μL) was prepared in 1× Assay buffer and 25 μL of mixture per well was added into Reaction plate (Optiplate, black, Perkin Elmer, Cat #6007270). Add 25 μL of 1× buffer to Ctrl- (Substrate w/o PTPN2) wells followed by centrifugation at 100 g for 1 min. Next step the Compounds were added to Reaction plate using Biomek station via following steps: 3 ul of 100× compounds (in DMSO) were mixed with 27 μL of Assay Buffer, then 5 μL of this mixture was added to Reaction plate with 25 μL of PTPN2 Mix. Plates were centrifuged for 1 min at 100 g and incubated for another 10 minutes at room temperature. Finally, 20 μL of 2.5× Substrate (DiFUMP, Invitrogen™ Cat #D6567) mix was added into appropriate wells of Reaction plate to the final concentration of 2 μM, plate was centrifuged at 100 g for 1 min followed by incubation at RT for 60 min, and the Fluorescence Intensity was measured using a Microplate Reader (ClarioStar Plus, excitation 360 nm, emission 450 nm). The % inhibition was then used to calculate the IC50 values. The IC50 values are shown in Table A1, wherein “A” corresponds to IC50<5.0 nm, “B” corresponds to 5.0 nm≤IC50<10.0 nm, “C” corresponds to 10.0 nm≤IC50<50.0 nm, “D” corresponds to 50.0 nm≤IC50<100.0 nm, and “E” corresponds to 100.0 nm≤IC50<500.0 nm, and “F” corresponds to 500.0 nm≤IC50.

The mark [3] stands for this setting: B16F10, + IFNγ, read-out: IC50 + IFNγ.
Setting [4] is: B16F10, no IFNγ, read-out: IC50 no IFNγ.
The mark [5] stands for this setting: + IFNγ, read-out: % Growth Inhibition at 100 μM + IFNγ.
The mark [6] stands for this setting: no IFNγ, read-out: % Growth Inhibition at 100 μM no IFNγ.

On to `O=C1CN(c2c(O)cc(NC(=O)NCC3CNCC34CCCCC4)cc2F)S(=O)(=O)N1` (stereo not drawn) [Example 100, 1-(2-azaspiro[4.5]decan-4-ylmethyl)-3-[3-fluoro-5-hydroxy-4-(1,1,4-trioxo-1,2,5-thiadiazolidin-2-yl)phenyl]urea], for which the results for the IC50 in experiment [1] (setting [3]), in experiment [1] (setting [4]) and in experiment [2] were 10 to 50 µM, ≥ 100 µM and 0.01 to 0.05 µM, respectively. Besides, the inhibition at 100 µM in experiment [1] (setting [5]) is 50 to 75%; in experiment [1] (setting [6]) it was 10 to 50%.
For the compound `COc1ccc(S(=O)(=O)Nc2cc(O)c(N3CC(=O)NS3(=O)=O)c(F)c2)cc1OC` [Example 26, N-[4-(1,1-dioxido-4-oxo-1,2,5-thiadiazolidin-2-yl)-3-fluoro-5-hydroxyphenyl]-3,4-dimethoxybenzenesulfonamide], the half-inhibitory concentration (IC50) is 10 to 50 µM in experiment [1] (setting [3]), ≥ 100 µM in experiment [1] (setting [4]) and 0.01 to 0.05 µM in experiment [2]. In addition, the results for the inhibition at 100 µM in experiment [1] (setting [5]) and in experiment [1] (setting [6]) were 50 to 75% and 10 to 50%, respectively.
Turning to `O=C1CN(c2c(O)cc(NS(=O)(=O)c3ccccc3F)cc2F)S(=O)(=O)N1` [Example 21, N-[4-(1,1-dioxido-4-oxo-1,2,5-thiadiazolidin-2-yl)-3-fluoro-5-hydroxyphenyl]-2-fluorobenzenesulfonamide], the half-maximal inhibitory concentration (IC50) in experiment [1] (setting [3]) was 10 to 50 µM; in experiment [1] (setting [4]), ≥ 100 µM; in experiment [2] it was 0.1 to 0.5 µM. Moreover, the inhibition at 100 µM in experiment [1] (setting [5]) was in the range of 50 to 75%; in experiment [1] (setting [6]), 10 to 50%.
The matching figures for `O=C1CN(c2c(O)cc(NC(=O)Nc3ccccc3C(F)(F)F)cc2F)S(=O)(=O)N1` [Example 55, 1-[4-(1,1-dioxido-4-oxo-1,2,5-thiadiazolidin-2-yl)-3-fluoro-5-hydroxyphenyl]-3-[2-(trifluoromethyl)phenyl]urea]: ≥ 100 µM, ≥ 100 µM, 0.005 to 0.01 µM, 10 to 50% and 10 to 50%.
The matching figures for `O=C1CN(c2c(O)cc(NC(=O)NC3CCN(S(=O)(=O)c4ccccc4Cl)CC3)cc2F)S(=O)(=O)N1` [Example 51, 1-{1-[(2-chlorophenyl)sulfonyl]piperidin-4-yl}-3-[4-(1,1-dioxido-4-oxo-1,2,5-thiadiazolidin-2-yl)-3-fluoro-5-hydroxyphenyl]urea]: ≥ 100 µM, ≥ 100 µM, < 0.005 µM, 10 to 50% and 10 to 50%.
With `CC(C)CNC(=O)C12CC(NC(=O)Nc3cc(O)c(N4CC(=O)NS4(=O)=O)c(F)c3)(C1)C2` [Example 112, 3-[[3-fluoro-5-hydroxy-4-(1,1,4-trioxo-1,2,5-thiadiazolidin-2-yl)phenyl]carbamoylamino]-N-isobutyl-bicyclo[1.1.1]pentane-1-carboxamide], the IC50 in experiment [1] (setting [3]) is 50 to 100 µM; in experiment [1] (setting [4]), ≥ 100 µM; in experiment [2], < 0.005 µM. The inhibition at 100 µM in experiment [1] (setting [5]) and in experiment [1] (setting [6]) was 10 to 50% throughout.
In the case of `O=C1CN(c2c(O)cc(NC(=O)NC3CCCNC3)cc2F)S(=O)(=O)N1` (stereo not drawn) [Example 104, 1-[3-fluoro-5-hydroxy-4-(1,1,4-trioxo-1,2,5-thiadiazolidin-2-yl)phenyl]-3-(3-piperidyl)urea], the IC50 was 5 to 10 µM in experiment [1] (setting [3]), ≥ 100 µM in experiment [1] (setting [4]) and < 0.005 µM in experiment [2]. Besides, the inhibition at 100 µM in experiment [1] (setting [5]) was in the range of 75 to 100%; in experiment [1] (setting [6]), 10 to 50%.
Consider `O=C1CN(c2c(O)cc(NC(=O)Nc3ccc(C(F)(F)F)cc3)cc2F)S(=O)(=O)N1` [Example 41, 1-[4-(1,1-dioxido-4-oxo-1,2,5-thiadiazolidin-2-yl)-3-fluoro-5-hydroxyphenyl]-3-[4-(trifluoromethyl)phenyl]urea], for which the 50% inhibitory concentration (IC50) in experiment [1] (setting [3]) was 50 to 100 µM; in experiment [1] (setting [4]) it was ≥ 100 µM; in experiment [2], 0.005 to 0.01 µM. Also, the inhibition at 100 µM lay in the range of 50 to 75% in experiment [1] (setting [5]) and 10 to 50% in experiment [1] (setting [6]).
As for `COc1ccc(C(=O)Nc2cc(O)c(N3CC(=O)NS3(=O)=O)c(F)c2)cc1` [Example 15, N-[4-(1,1-dioxido-4-oxo-1,2,5-thiadiazolidin-2-yl)-3-fluoro-5-hydroxyphenyl]-4-methoxybenzamide], the results for the 50% inhibitory concentration (IC50) in experiment [1] (setting [3]), in experiment [1] (setting [4]) and in experiment [2] were 10 to 50 µM, 10 to 50 µM and 0.1 to 0.5 µM, respectively. The inhibition at 40 µM is 10 to 50% in experiment [1] (+ IFNγ, read-out: % Growth Inhibition + IFNγ @ 40 μM) and 10 to 50% in experiment [1] (no IFNγ, read-out: % Growth Inhibition no IFNγ @ 40 μM).
Take `O=C1CN(c2c(O)cc(NC(=O)N[C@H]3CC[C@H](CO)CC3)cc2F)S(=O)(=O)N1` [Example 107, 1-[3-fluoro-5-hydroxy-4-(1,1,4-trioxo-1,2,5-thiadiazolidin-2-yl)phenyl]-3-[4-(hydroxymethyl)-cyclohexyl]urea]: the 50% inhibitory concentration (IC50) is 5 to 10 µM in experiment [1] (setting [3]), ≥ 100 µM in experiment [1] (setting [4]) and < 0.005 µM in experiment [2]. For the same compound, the inhibition at 100 µM in experiment [1] (setting [5]) is 50 to 75%; in experiment [1] (setting [6]), 10 to 50%.
Take `CC(C)(C)c1ccc(C(=O)Nc2cc(O)c(N3CC(=O)NS3(=O)=O)c(F)c2)cc1` [Example 16, 4-tert-butyl-N-[4-(1,1-dioxido-4-oxo-1,2,5-thiadiazolidin-2-yl)-3-fluoro-5-hydroxyphenyl]benzamide]: the IC50 in experiment [1] (setting [3]) was ≥ 100 µM; in experiment [1] (setting [4]), ≥ 100 µM; in experiment [2], 0.1 to 0.5 µM. Besides, the inhibition at 100 µM in experiment [1] (setting [5]) and in experiment [1] (setting [6]) was 10 to 50% throughout.
Take `CC(C)(C)OC(=O)N1CC(CNC(=O)Nc2cc(O)c(N3CC(=O)NS3(=O)=O)c(F)c2)C2(CCCCC2)C1` (stereo not drawn) [Example 101, tert-butyl 4-[[[3-fluoro-5-hydroxy-4-(1,1,4-trioxo-1,2,5-thiadiazolidin-2-yl)phenyl]carbamoyl-amino]methyl]-2-azaspiro[4.5]decane-2-carboxylate]: the IC50 was 50 to 100 µM in experiment [1] (setting [3]), ≥ 100 µM in experiment [1] (setting [4]) and 0.01 to 0.05 µM in experiment [2]. Further, the figures for the inhibition at 100 µM in experiment [1] (setting [5]) and in experiment [1] (setting [6]) were 50 to 75% and 10 to 50%, respectively.
As to `COc1ccc(NC(=O)Nc2cc(O)c(N3CC(=O)NS3(=O)=O)c(F)c2)cc1` [Example 37, 1-[4-(1,1-dioxido-4-oxo-1,2,5-thiadiazolidin-2-yl)-3-fluoro-5-hydroxyphenyl]-3-(4-methoxyphenyl)urea], the IC50 was ≥ 100 µM in experiment [1] (setting [3]), ≥ 100 µM in experiment [1] (setting [4]) and < 0.005 µM in experiment [2]. For the same compound, the inhibition at 100 µM in experiment [1] (setting [5]) and in experiment [1] (setting [6]) was 10 to 50% throughout.
For `O=C1CN(c2c(O)cc(NC(=O)NC3CCCCC3O)cc2F)S(=O)(=O)N1` (stereo not drawn) [Example 105, 1-[3-fluoro-5-hydroxy-4-(1,1,4-trioxo-1,2,5-thiadiazolidin-2-yl)phenyl]-3-(2-hydroxycyclohexyl)urea], the IC50 in experiment [1] (setting [3]) was 5 to 10 µM; in experiment [1] (setting [4]) it was ≥ 100 µM; in experiment [2] it was < 0.005 µM. For the same compound, the inhibition at 100 µM was in the range of 75 to 100% in experiment [1] (setting [5]) and 10 to 50% in experiment [1] (setting [6]).
For `O=C1CN(c2c(O)cc(NC(=O)NC3CCNCC3)cc2F)S(=O)(=O)N1` [Example 99, 1-[3-fluoro-5-hydroxy-4-(1,1,4-trioxo-1,2,5-thiadiazolidin-2-yl)phenyl]-3-(4-piperidyl)urea], the concentration for half-maximal inhibition (IC50) in experiment [1] (setting [3]) was 10 to 50 µM; in experiment [1] (setting [4]), ≥ 100 µM; in experiment [2], 0.01 to 0.05 µM. Also, the inhibition at 100 µM lay within 50 to 75% in experiment [1] (setting [5]) and 10 to 50% in experiment [1] (setting [6]).
